From article PMC11173382, “In Vitro Investigations into the Potential Drug Interactions of Pseudoginsenoside DQ Mediated by Cytochrome P450 and Human Drug Transporters” (Molecules, 2024)

Tests used:
hMDR1(P-gp) = target: T1, hMDR1(P-gp) (Homo sapiens, UniProt P08183); test: MDCK II-MDR1 drug transport assay (3H-digoxin); format: in vitro ADME; conditions: for Transport activity of P-gp (main text: percentage inhibition): negative control = 100%
T1 construct: host or cells: MDCKII-MDR1
Text: (§1) Drug transporters mediate the cellular uptake and efflux of their substrates. Therefore, cell lines overexpressing a drug transporter can be utilized to investigate inhibitors of the transporter by assessing changes in substrate uptake. For each drug transporter, we selected a well-characterized inhibitor as the positive control. Radiolabeled substrates were used to indicate the decrease in transport efficiency when the drug transporters were inhibited by PDQ or the control inhibitors.
(§2) The concentrations of the control drugs and the substrates were stated in the assay details. Working solutions of the control inhibitors, the radiolabeled substrates, and each dose of PDQ were prepared at 200 times (200×) more concentrated solutions with DMSO for further dilution.
(§3) Transporter-overexpressed cell lines. Human organic anion transporter-overexpressed cell lines MDCKII-OAT1 and S2-OAT3, human organic anion transport polypeptide-overexpressed cell lines HEK293A-OATP1B1 and HEK293A-OATP1B3, human organic cation transporter 2-overexpressed cell line S2-OCT2, and human multi-drug resistance protein MDR1 (or P-gp)-overexpressed cell line MDCKII-MDR1 were gifts from Japan Fuji Biomedical Co., Ltd. (Fuji, Shizuoka Prefecture, Japan). Breast cancer resistance protein-overexpressed vesicles (sf9-BCRP vesicle) were purchased from GenoMembrane Co., Ltd. (Yokohama, Kanagawa, Japan).
All reagents were pre-warmed to 37 °C. […] The plate was incubated for 20 min. […] Each sample was replicated three times (N = 3).
(§4) In = [100 × (U − U0)/(Uc − U0)]%(3)
The results were expressed as mean ± standard deviation (SD) and analyzed with GraphPad Prism 8.0 software (CA, USA). The IC50 of PDQ was curve-fitted with the FORECAST function.

hBCRP = target: T2, hBCRP (Homo sapiens, UniProt Q9UNQ0); test: Vesicular transport assay with sf9-BCRP vesicles (3H-ES); format: in vitro ADME; conditions: for Transport activity of BCRP (main text: percentage inhibition): negative control = 100%
T2 construct: purchased GenoMembrane DNAIG03; host or cells: Sf9 insect cell membrane vesicles
T2 sequence (Q9UNQ0 1-655): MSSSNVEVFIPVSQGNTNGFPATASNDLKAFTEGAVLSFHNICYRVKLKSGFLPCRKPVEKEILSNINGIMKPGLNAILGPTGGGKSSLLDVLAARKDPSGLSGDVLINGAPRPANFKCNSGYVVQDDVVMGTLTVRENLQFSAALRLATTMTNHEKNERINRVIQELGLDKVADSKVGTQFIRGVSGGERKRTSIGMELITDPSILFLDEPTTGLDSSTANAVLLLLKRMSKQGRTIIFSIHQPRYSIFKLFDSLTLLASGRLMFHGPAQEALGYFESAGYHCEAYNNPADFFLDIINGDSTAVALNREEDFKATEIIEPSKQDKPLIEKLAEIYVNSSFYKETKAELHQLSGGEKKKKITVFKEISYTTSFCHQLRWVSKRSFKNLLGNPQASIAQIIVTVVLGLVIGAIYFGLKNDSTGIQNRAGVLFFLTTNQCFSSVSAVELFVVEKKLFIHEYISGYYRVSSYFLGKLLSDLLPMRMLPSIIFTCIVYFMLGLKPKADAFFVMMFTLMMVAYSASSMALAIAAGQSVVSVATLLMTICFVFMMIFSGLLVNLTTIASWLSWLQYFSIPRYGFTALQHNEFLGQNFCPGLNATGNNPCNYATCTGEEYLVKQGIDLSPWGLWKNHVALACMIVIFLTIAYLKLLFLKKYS
Text: as §1, §2, §3
Vesicular transport assay with the sf9-BCRP model. Vesicular transport assay was conducted to measure the interaction between PDQ and the efflux transporter BCRP, using sf9-BCRP vesicles (Cat. No, DNAIG03, GenoMembrane, Yokohama, Kanagawa, Japan). The modulation of ^3H-ES transport reflects the level of the drug-transporter interaction.
The MgATP working solution was prepared by diluting the 200 mM stock solution with the transport buffer, while the reduced glutathione solution was made by dissolving glutathione (0.615 g) in 8 mL deionized water and adjusting the pH to 6.8 with 2M NaOH. The drug solution in the reaction mix was replaced with […] of transport buffer as the negative control mix. These reaction mixes were pre-incubated at 37 °C before use. All reagents were thawed on ice, and deionized water was used for the preparation.
The membrane suspension was gently mixed with ice-cold transport buffer and aliquoted to 1.5 mL centrifuge tubes on ice. Each tube contained […] of vesicles ([…] BCRP) and […] of transport buffer. The vesicle-containing tubes were pre-incubated at 37 °C for 5 min. Then, the reaction mixes were added to the tubes to initiate the assay. To terminate the reaction after 5 min, […] of washing buffer (40 mM MOPS-Tris and 70 mM KCl) was added to each tube on ice. The samples were then transferred to the filter and filtered. The filters were washed with 5 mL of cold washing buffer three times. Subsequently, the filters were placed at the bottom of the counting vials, and the scintillation cocktail was added. The filter and the cocktail were vigorously vortexed to mix. The remaining radiation in the samples was then measured with the scintillation counter. Each sample was replicated three times (N = 3).
as §4
The results were expressed as mean ± standard deviation (SD) and analyzed with GraphPad Prism 8.0 software (CA, USA). The IC50 of PDQ was curve-fitted with the FORECAST function. Statistical significance was calculated using a two-tailed test, and a p value < 0.05 was considered as significant.

T1 sequence (P08183 whole entry): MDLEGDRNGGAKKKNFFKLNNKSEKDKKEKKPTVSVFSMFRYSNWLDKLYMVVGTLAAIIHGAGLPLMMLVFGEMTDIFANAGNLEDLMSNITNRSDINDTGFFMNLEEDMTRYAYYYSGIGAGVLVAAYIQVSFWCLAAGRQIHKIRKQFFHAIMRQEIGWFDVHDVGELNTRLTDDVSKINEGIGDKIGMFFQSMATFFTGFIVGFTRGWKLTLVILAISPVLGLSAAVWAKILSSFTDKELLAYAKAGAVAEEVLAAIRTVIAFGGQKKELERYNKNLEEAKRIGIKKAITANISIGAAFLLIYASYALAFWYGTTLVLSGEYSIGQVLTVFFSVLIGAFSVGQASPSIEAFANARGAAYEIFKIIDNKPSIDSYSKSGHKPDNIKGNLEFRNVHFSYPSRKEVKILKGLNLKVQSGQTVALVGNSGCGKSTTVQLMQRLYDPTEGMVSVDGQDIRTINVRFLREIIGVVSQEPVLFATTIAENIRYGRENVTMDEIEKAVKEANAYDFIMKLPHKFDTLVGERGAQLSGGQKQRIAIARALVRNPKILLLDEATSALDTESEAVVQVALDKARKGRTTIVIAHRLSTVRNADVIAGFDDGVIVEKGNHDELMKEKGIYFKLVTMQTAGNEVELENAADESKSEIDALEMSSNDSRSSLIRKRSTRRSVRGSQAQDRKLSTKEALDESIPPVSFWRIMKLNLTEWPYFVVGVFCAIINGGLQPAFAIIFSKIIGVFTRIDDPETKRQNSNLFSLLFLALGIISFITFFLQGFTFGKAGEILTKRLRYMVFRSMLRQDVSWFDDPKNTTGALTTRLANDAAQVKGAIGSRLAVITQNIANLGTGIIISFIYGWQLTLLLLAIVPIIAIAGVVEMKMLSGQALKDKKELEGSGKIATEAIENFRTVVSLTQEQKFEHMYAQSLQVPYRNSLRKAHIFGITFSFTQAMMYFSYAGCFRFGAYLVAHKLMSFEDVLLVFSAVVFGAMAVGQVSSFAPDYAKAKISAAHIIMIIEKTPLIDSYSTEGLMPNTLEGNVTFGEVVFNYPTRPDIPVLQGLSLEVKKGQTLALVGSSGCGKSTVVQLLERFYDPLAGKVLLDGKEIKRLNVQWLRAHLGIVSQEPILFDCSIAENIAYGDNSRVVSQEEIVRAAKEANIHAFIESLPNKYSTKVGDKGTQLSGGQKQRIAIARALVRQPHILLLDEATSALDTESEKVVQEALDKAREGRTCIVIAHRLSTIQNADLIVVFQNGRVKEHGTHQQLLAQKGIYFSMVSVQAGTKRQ

CC(C)(O)[C@@H]1CC[C@@](C)([C@H]2CC[C@]3(C)[C@@H]2[C@H](O)C[C@@H]2[C@@]4(C)CC[C@H](O)C(C)(C)[C@@H]4CC[C@]23C)O1 [PDQ, (20S,24S)-dammar-20,24-epoxy-3β, 12β, 25-triol] was tested, and the IC50 (hMDR1(P-gp); MDCKII-MDR1, 25 μM 3H-digoxin, 15 min) was 410 nM, the “Transport activity of P-gp (main text: percentage inhibition)” value (hMDR1(P-gp); inhibitor 0.1 μM) was 57.5±7.1% and the “Transport activity of P-gp (main text: percentage inhibition)” value (hMDR1(P-gp); inhibitor 0.3 μM) was 57.0±9.2%. The “Transport activity of P-gp (main text: percentage inhibition)” value (hMDR1(P-gp); inhibitor 1 μM) was 30.8±6.4%, the “Transport activity of P-gp (main text: percentage inhibition)” value (hMDR1(P-gp); inhibitor 3 μM) was 23.2±7.1% and the “DPM (3H-ES transport by BCRP)” value (hBCRP; inhibitor 0.1 μM) was 5303.7±176.6 DPM. The “Transport activity of BCRP (main text: percentage inhibition)” value (hBCRP; inhibitor 0.1 μM) was 96.1±3.2%, the “DPM (3H-ES transport by BCRP)” value (hBCRP; inhibitor 0.3 μM) was 2995.3±288.8 DPM and the “Transport activity of BCRP (main text: percentage inhibition)” value (hBCRP; inhibitor 0.3 μM) was 54.3±5.2%. The “DPM (3H-ES transport by BCRP)” value (hBCRP; inhibitor 1 μM) was 2788.3±479.5 DPM, the “Transport activity of BCRP (main text: percentage inhibition)” value (hBCRP; inhibitor 1 μM) was 50.5±8.7% and the “DPM (3H-ES transport by BCRP)” value (hBCRP; inhibitor 3 μM) was 2352.7±355.1 DPM. For the same compound, the “Transport activity of BCRP (main text: percentage inhibition)” value (hBCRP; inhibitor 3 μM) was 42.7±6.4%, the “DPM (3H-ES transport by BCRP)” value (hBCRP; inhibitor 10 μM) was 1997.3±185.1 DPM and the “Transport activity of BCRP (main text: percentage inhibition)” value (hBCRP; inhibitor 10 μM) was 36.2±3.4%. The “DPM (3H-ES transport by BCRP)” value (hBCRP; inhibitor 30 μM) was 1911.0±179.5 DPM and the IC50 (hBCRP; sf9-BCRP vesicles, 3H-ES 1 µM, 5 min) was 1080 nM.
